# Source: the supplement of paper PMC12076712
# Columns and labels:
# Assay in all cases: pIC50, kinobeads binding competition
# UniProt P48729 = biological target: UniProt P48729
# Method in brief: (§1)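 pIC50 was obtained by fitting fold changes against vehicle to logistic dose-response curves with the R drc package, using biological duplicates. Kinobeads-bound proteins were digested and measured by TMT10 LC-MS/MS. Before this, either living Jurkat cells received nine compound concentrations (top 30 μM, 1:4 steps) for 60 min at 37 °C prior to lysis, or Jurkat lysate or a 1:1:1:1 HEK293/K-562/HepG2/placenta lysate mix received nine concentrations (top 30 μM, 1:5 steps) for 60 min at 4 °C.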
# LIMK1 = LIMK1 (UniProt P53667)
# Method in brief: as §1
# MAST3 = MAST3 (UniProt O60307)
# Method in brief: as §1
# PDIK1L = PDIK1L (UniProt Q8N165)
# Method in brief: as §1
# UniProt Q13043 = biological target: T1, UniProt Q13043
# T1 sequence (whole entry): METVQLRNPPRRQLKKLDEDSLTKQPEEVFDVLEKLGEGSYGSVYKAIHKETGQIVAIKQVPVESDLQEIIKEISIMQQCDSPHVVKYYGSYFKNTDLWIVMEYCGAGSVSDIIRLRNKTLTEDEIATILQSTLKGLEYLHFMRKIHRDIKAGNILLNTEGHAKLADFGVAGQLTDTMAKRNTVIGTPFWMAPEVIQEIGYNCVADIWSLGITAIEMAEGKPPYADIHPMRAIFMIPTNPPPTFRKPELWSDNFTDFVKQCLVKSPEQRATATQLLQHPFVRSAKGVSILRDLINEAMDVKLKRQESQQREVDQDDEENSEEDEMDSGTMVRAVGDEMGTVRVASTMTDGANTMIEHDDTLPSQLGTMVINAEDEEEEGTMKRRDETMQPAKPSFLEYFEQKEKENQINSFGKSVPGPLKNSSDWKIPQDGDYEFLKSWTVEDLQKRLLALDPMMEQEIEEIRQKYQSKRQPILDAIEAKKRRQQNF
# Method in brief: as §1
# CAMK2B = CAMK2B (UniProt Q13554); settings: cell material: Lysate mix
# Method in brief: as §1
# Jak2 = Jak2 (UniProt O60674)
# Method in brief: as §1
# UniProt Q13164 = biological target: UniProt Q13164
# Method in brief: as §1
# UniProt Q15418 = biological target: UniProt Q15418
# Method in brief: as §1
# BMPR1A = BMPR1A (UniProt P36894)
# Method in brief: as §1
# UniProt P27361 = biological target: UniProt P27361
# Method in brief: as §1
# UniProt Q16659 = biological target: UniProt Q16659
# Method in brief: as §1
# JAK1 = JAK1 (UniProt P23458)
# Method in brief: as §1
# GAK = biological target: T2, GAK (UniProt O14976)
# T2 sequence (whole entry): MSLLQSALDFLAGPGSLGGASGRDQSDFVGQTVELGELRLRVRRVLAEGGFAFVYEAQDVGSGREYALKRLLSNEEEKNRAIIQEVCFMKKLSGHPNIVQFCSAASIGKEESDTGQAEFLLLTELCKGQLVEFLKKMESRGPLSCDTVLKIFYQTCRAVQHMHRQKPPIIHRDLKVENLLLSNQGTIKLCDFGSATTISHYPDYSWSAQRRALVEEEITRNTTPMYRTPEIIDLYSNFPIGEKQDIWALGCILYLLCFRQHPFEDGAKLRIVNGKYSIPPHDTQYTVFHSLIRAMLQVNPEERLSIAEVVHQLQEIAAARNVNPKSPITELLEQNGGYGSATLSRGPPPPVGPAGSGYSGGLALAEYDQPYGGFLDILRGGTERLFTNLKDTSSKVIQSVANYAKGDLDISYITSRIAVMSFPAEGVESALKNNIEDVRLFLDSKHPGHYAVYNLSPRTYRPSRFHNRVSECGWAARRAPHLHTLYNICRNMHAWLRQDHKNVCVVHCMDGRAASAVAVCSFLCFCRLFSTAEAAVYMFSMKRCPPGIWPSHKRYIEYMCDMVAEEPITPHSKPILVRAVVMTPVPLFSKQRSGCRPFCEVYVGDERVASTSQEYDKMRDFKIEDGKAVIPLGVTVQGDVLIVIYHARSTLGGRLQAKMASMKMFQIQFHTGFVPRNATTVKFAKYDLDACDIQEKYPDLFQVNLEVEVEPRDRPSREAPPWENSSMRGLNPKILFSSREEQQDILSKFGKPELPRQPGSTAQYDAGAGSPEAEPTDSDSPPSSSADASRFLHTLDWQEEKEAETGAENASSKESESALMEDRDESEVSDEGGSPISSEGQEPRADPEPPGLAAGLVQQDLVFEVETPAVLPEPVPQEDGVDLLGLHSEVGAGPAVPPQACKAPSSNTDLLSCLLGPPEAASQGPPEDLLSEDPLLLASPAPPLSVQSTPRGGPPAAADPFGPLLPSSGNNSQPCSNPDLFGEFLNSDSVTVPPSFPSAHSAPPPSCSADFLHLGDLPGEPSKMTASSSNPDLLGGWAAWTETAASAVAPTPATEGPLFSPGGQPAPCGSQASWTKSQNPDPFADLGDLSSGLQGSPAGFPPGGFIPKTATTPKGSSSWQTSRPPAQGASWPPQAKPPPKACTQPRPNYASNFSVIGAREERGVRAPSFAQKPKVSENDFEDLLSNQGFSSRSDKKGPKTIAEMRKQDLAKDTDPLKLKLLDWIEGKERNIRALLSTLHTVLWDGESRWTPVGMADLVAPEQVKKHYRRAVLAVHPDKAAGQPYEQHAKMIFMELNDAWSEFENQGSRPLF
# Method in brief: as §1
# UniProt P27448 = biological target: UniProt P27448
# Method in brief: as §1
# CDK5 = CDK5 (UniProt Q00535)
# Method in brief: as §1
# UniProt Q9Y2I7 = biological target: UniProt Q9Y2I7
# Method in brief: as §1
# UniProt P27361, sequence (P27361 whole entry): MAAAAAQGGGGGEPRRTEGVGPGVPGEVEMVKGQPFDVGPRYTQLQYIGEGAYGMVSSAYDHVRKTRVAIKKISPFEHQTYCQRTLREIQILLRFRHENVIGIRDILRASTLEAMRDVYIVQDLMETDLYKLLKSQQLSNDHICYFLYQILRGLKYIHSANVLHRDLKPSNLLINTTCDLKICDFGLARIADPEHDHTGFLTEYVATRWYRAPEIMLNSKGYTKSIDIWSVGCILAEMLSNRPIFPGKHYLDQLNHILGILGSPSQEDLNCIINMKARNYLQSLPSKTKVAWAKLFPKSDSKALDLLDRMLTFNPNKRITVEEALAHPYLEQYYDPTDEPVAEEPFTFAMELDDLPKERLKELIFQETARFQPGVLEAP
# CDK5, sequence (Q00535 whole entry, looked up): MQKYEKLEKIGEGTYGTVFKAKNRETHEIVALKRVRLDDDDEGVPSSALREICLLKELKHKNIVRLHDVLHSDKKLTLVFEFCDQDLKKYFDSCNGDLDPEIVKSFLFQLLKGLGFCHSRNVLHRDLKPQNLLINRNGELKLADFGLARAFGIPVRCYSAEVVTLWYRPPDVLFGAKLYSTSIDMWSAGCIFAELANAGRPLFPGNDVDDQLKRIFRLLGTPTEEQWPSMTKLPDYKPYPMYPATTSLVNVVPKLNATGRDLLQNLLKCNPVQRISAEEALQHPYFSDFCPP
# UniProt Q15418, sequence (Q15418 whole entry): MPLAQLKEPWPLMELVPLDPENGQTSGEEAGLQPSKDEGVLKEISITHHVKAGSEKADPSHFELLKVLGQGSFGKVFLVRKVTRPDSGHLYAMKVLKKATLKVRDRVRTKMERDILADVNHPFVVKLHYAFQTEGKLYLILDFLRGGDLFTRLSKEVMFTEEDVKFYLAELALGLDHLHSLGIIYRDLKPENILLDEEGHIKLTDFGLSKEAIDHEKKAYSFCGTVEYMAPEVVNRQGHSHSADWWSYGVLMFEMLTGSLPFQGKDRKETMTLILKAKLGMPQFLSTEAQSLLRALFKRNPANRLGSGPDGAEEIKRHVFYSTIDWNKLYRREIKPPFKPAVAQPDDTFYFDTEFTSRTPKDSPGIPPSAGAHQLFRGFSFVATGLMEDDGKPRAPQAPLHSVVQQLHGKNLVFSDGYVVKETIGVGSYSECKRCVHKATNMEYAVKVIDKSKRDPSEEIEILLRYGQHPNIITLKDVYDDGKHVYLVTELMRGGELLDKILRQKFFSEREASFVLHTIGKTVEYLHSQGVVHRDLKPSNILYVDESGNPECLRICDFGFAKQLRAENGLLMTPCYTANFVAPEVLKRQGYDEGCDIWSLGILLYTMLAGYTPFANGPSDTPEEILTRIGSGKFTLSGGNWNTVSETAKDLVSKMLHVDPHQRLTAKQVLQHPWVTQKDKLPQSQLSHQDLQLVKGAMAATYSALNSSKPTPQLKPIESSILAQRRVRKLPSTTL
# UniProt Q16659, sequence (Q16659 whole entry): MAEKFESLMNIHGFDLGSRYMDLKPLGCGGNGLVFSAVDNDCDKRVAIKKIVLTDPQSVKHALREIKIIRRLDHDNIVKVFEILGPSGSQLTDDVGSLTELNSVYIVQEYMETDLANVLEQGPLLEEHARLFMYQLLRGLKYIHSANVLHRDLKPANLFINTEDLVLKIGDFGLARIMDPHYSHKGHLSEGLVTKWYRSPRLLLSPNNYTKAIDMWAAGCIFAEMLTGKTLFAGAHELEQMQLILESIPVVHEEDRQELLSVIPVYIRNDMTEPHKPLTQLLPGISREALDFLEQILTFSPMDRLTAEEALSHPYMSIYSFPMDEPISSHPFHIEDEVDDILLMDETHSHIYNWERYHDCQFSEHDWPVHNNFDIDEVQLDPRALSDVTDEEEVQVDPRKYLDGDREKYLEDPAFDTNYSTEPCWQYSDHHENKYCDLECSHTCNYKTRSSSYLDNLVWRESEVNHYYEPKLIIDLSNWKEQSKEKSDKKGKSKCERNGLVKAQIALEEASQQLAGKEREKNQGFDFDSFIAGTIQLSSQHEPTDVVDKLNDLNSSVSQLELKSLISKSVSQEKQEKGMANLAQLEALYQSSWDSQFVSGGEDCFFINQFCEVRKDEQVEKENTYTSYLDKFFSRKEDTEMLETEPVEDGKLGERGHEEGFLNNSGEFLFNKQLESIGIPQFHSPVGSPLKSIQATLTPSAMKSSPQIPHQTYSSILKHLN
# LIMK1, sequence (P53667 whole entry, looked up): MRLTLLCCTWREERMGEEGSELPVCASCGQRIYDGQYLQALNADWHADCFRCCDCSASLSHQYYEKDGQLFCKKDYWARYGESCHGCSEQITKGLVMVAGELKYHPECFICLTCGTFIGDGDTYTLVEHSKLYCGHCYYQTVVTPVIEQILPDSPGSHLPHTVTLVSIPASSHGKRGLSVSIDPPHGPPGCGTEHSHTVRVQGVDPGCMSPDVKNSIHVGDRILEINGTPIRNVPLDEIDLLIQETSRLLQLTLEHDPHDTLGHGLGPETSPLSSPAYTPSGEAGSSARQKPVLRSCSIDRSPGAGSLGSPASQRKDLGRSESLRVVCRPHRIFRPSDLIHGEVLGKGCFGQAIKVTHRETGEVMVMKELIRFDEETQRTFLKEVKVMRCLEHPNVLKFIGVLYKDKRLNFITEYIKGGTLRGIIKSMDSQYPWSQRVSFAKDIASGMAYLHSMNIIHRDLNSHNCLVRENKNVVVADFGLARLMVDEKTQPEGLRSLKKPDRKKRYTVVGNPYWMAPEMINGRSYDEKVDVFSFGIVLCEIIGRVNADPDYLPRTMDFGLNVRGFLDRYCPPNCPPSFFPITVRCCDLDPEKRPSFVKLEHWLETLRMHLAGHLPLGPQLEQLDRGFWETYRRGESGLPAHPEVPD
# Jak2, sequence (O60674 whole entry): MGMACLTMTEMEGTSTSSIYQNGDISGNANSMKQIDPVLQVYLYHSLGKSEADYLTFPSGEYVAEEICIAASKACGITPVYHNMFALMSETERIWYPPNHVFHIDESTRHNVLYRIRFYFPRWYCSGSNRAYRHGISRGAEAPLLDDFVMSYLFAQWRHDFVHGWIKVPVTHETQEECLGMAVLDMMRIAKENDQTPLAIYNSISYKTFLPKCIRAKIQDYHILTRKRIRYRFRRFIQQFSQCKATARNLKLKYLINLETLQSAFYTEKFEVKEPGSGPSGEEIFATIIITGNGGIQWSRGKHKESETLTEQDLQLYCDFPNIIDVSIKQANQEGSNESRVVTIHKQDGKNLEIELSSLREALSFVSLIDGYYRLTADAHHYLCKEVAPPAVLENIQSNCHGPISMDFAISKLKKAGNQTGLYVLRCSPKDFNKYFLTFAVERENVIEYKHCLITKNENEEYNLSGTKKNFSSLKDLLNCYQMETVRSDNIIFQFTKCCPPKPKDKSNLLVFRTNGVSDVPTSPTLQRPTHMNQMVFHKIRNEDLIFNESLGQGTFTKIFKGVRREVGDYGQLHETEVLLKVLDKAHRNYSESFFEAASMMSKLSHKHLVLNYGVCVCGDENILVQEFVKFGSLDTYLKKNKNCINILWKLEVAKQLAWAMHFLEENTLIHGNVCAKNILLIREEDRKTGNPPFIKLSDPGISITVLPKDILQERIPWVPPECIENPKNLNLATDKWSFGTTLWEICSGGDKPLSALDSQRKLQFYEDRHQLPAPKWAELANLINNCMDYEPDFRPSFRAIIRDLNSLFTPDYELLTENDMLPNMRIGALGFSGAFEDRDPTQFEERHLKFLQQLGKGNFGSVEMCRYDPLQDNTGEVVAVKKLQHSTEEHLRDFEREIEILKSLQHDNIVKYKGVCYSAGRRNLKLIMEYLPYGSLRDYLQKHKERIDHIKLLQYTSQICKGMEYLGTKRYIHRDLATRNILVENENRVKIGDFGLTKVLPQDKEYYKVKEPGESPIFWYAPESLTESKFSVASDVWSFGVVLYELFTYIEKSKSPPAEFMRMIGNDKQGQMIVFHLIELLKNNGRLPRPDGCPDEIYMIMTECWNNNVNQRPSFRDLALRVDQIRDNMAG
# JAK1, sequence (P23458 whole entry): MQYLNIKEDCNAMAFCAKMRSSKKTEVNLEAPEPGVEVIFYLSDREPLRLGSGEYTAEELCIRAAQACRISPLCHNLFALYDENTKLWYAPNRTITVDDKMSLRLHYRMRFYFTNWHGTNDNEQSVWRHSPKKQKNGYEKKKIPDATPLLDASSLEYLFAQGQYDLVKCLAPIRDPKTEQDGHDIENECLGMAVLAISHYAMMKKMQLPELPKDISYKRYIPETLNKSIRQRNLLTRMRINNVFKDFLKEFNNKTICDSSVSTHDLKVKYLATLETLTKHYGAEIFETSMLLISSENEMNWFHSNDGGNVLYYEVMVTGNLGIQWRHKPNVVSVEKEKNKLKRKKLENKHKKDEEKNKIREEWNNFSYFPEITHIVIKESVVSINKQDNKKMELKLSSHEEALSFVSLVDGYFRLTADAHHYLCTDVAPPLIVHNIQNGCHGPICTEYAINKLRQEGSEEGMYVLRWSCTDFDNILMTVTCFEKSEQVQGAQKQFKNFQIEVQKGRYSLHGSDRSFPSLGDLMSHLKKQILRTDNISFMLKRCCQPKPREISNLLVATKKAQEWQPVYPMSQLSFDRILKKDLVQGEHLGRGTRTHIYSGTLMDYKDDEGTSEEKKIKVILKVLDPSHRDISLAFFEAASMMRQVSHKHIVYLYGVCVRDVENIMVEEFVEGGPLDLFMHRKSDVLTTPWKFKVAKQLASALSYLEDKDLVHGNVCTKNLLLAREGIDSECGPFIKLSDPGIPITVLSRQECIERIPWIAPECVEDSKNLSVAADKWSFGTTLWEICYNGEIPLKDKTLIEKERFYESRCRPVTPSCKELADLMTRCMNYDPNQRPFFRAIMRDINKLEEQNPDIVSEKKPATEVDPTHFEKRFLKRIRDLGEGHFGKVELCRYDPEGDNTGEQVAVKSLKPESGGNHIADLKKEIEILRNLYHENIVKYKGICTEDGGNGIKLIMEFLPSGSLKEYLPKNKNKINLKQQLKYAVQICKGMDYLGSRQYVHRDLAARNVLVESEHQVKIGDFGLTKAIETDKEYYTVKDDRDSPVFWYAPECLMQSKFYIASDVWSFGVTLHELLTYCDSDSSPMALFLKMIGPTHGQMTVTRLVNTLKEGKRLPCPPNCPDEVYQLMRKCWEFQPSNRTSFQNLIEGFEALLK
structure (smiles),measurement,setting,value
CCNC(=O)c1cc(Nc2cc(C)[nH]n2)nc(N2CCN(Cc3ccc(S(=O)(=O)F)cc3)CC2)n1,pIC50,UniProt P48729; cell material: Lysate mix,< 4.52
same,pIC50,LIMK1; cell material: Lysate mix,5.74
same,pIC50,MAST3; cell material: Lysate mix,6.39
same,pIC50,PDIK1L; cell material: Lysate mix,5.5
same,pIC50,UniProt Q13043; cell material: Lysate mix,5.8
same,pIC50,CAMK2B,< 4.52
same,pIC50,Jak2; cell material: Lysate mix,4.98
same,pIC50,UniProt Q13164; cell material: Lysate mix,4.6
same,pIC50,UniProt Q15418; cell material: Lysate mix,5.04
same,pIC50,BMPR1A; cell material: Lysate mix,< 4.52
same,pIC50,UniProt P27361; cell material: Lysate mix,< 4.52
same,pIC50,UniProt Q16659; cell material: Lysate mix,< 4.52
same,pIC50,JAK1; cell material: Lysate mix,< 4.52
same,pIC50,GAK; cell material: Lysate mix,< 4.52
same,pIC50,UniProt P27448; cell material: Lysate mix,< 4.52
same,pIC50,CDK5; cell material: Lysate mix,5.93
same,pIC50,UniProt Q9Y2I7; cell material: Lysate mix,< 4.52
CCNC(=O)c1cc(Nc2cc(C3CC3)[nH]n2)nc(N2CCN(Cc3ccc(S(=O)(=O)F)cc3)CC2)n1,pIC50,UniProt P48729; cell material: Lysate mix,< 4.52
same,pIC50,LIMK1; cell material: Lysate mix,6.06
same,pIC50,MAST3; cell material: Lysate mix,6.22
same,pIC50,PDIK1L; cell material: Lysate mix,5.89
same,pIC50,UniProt Q13043; cell material: Lysate mix,6.06
same,pIC50,CAMK2B,< 4.52
same,pIC50,Jak2; cell material: Lysate mix,4.73
same,pIC50,UniProt Q13164; cell material: Lysate mix,5.16
same,pIC50,UniProt Q15418; cell material: Lysate mix,5.37
same,pIC50,BMPR1A; cell material: Lysate mix,4.87
same,pIC50,UniProt P27361; cell material: Lysate mix,4.94
same,pIC50,UniProt Q16659; cell material: Lysate mix,< 4.52
same,pIC50,JAK1; cell material: Lysate mix,< 4.52
same,pIC50,GAK; cell material: Lysate mix,< 4.52
same,pIC50,UniProt P27448; cell material: Lysate mix,< 4.52
same,pIC50,CDK5; cell material: Lysate mix,6.06
same,pIC50,UniProt Q9Y2I7; cell material: Lysate mix,< 4.52
Cc1cc(Nc2cc(C(=O)NCCNC(=O)OC3CC/C=C/CCC3)nc(N3CCN(Cc4ccc(S(=O)(=O)F)cc4)CC3)n2)n[nH]1 (stereo not drawn),pIC50,UniProt P48729; cell material: Lysate mix,< 4.52
same,pIC50,LIMK1; cell material: Lysate mix,< 4.52
same,pIC50,MAST3; cell material: Lysate mix,4.84
same,pIC50,PDIK1L; cell material: Lysate mix,< 4.52
same,pIC50,UniProt Q13043; cell material: Lysate mix,4.74
same,pIC50,CAMK2B,< 4.52
same,pIC50,Jak2; cell material: Lysate mix,< 4.52
same,pIC50,UniProt Q13164; cell material: Lysate mix,< 4.52
same,pIC50,UniProt Q15418; cell material: Lysate mix,< 4.52
same,pIC50,BMPR1A; cell material: Lysate mix,< 4.52
same,pIC50,UniProt P27361; cell material: Lysate mix,< 4.52
same,pIC50,UniProt Q16659; cell material: Lysate mix,< 4.52
same,pIC50,JAK1; cell material: Lysate mix,< 4.52
same,pIC50,GAK; cell material: Lysate mix,< 4.52
same,pIC50,UniProt P27448; cell material: Lysate mix,< 4.52
same,pIC50,CDK5; cell material: Lysate mix,4.92
same,pIC50,UniProt Q9Y2I7; cell material: Lysate mix,< 4.52
C#CCNC(=O)c1cc(Nc2cc(C3CC3)[nH]n2)nc(N2CCN(Cc3ccc(S(=O)(=O)F)cc3)CC2)n1,pIC50,UniProt P48729; cell material: Jurkat cells,5.51
same,pIC50,UniProt P48729; cell material: Jurkat lysate,< 4.52
same,pIC50,UniProt P48729; cell material: Lysate mix,< 4.52
same,pIC50,LIMK1; cell material: Jurkat cells,6.96
same,pIC50,LIMK1; cell material: Jurkat lysate,5.99
same,pIC50,LIMK1; cell material: Lysate mix,6.32
same,pIC50,MAST3; cell material: Jurkat cells,6.54
same,pIC50,MAST3; cell material: Jurkat lysate,6.27
same,pIC50,MAST3; cell material: Lysate mix,6.56
same,pIC50,PDIK1L; cell material: Jurkat cells,6.16
same,pIC50,PDIK1L; cell material: Jurkat lysate,5.61
same,pIC50,PDIK1L; cell material: Lysate mix,5.64
same,pIC50,UniProt Q13043; cell material: Jurkat cells,6.35
same,pIC50,UniProt Q13043; cell material: Jurkat lysate,5.89
same,pIC50,UniProt Q13043; cell material: Lysate mix,6.8
same,pIC50,CAMK2B,< 4.52
same,pIC50,Jak2; cell material: Jurkat lysate,< 4.52
same,pIC50,Jak2; cell material: Lysate mix,4.9
same,pIC50,UniProt Q13164; cell material: Jurkat cells,5.69
same,pIC50,UniProt Q13164; cell material: Jurkat lysate,< 4.52
same,pIC50,UniProt Q13164; cell material: Lysate mix,5.14
same,pIC50,UniProt Q15418; cell material: Jurkat cells,5.98
same,pIC50,UniProt Q15418; cell material: Jurkat lysate,< 4.52
same,pIC50,UniProt Q15418; cell material: Lysate mix,5.49
same,pIC50,BMPR1A; cell material: Jurkat cells,4.69
same,pIC50,BMPR1A; cell material: Jurkat lysate,< 4.52
same,pIC50,BMPR1A; cell material: Lysate mix,4.99
same,pIC50,UniProt P27361; cell material: Jurkat cells,5.73
same,pIC50,UniProt P27361; cell material: Jurkat lysate,< 4.52
same,pIC50,UniProt Q16659; cell material: Jurkat cells,< 4.52
same,pIC50,UniProt Q16659; cell material: Jurkat lysate,< 4.52
same,pIC50,UniProt Q16659; cell material: Lysate mix,< 4.52
same,pIC50,JAK1; cell material: Jurkat cells,5.18
same,pIC50,JAK1; cell material: Jurkat lysate,< 4.52
same,pIC50,JAK1; cell material: Lysate mix,< 4.52
same,pIC50,GAK; cell material: Jurkat cells,< 4.52
same,pIC50,GAK; cell material: Jurkat lysate,< 4.52
same,pIC50,GAK; cell material: Lysate mix,< 4.52
same,pIC50,UniProt P27448; cell material: Jurkat cells,5.81
same,pIC50,UniProt P27448; cell material: Jurkat lysate,< 4.52
same,pIC50,UniProt P27448; cell material: Lysate mix,< 4.52
same,pIC50,CDK5; cell material: Jurkat cells,6.74
same,pIC50,CDK5; cell material: Jurkat lysate,5.96
same,pIC50,CDK5; cell material: Lysate mix,6.48
same,pIC50,UniProt Q9Y2I7; cell material: Jurkat cells,5.27
same,pIC50,UniProt Q9Y2I7; cell material: Jurkat lysate,< 4.52
same,pIC50,UniProt Q9Y2I7; cell material: Lysate mix,< 4.52
